Values joined by “and” are separate entries in the source; they are usually repeats but may differ in a detail not shown here. Equal entries are not always repeated.
Legend:
[1] = Permeability assay in Caco-2 cells; settings: human; for Papp A→B at 2 h, 5 μM / Papp B→A at 2 h, 5 μM / efflux ratio at 2 h, 5 μM: Caco-2, pH 7.4; for recovery at 2 h, 5 µM: Caco-2
Method: Preparation of Caco-2 Cells: 50 μL and 25 mL of cell culture medium were added to each well of the Transwell insert and reservoir, respectively. And then the HTS transwell plates were incubated at 37° C., 5% CO2 for 1 hour before cell seeding. […] Cell culture medium was replaced every other day, beginning no later than 24 hours after initial plating.
Preparation of Stock Solutions: The stock solutions of control and test compounds were prepared in DMSO at the concentration of 10 mM. Digoxin, Prazosin and propranolol were used as control compounds in this assay.
Assay Procedures: The Caco-2 plate was removed from the incubator and washed twice with pre-warmed HBSS (10 mM HEPES, pH 7.4), and then incubated at 37° C. for 30 minutes. The stock solutions of controls and Test compounds were diluted in DMSO to get 1 mM solutions and then diluted with HBSS (10 mM HEPES, pH 7.4) to get 5 μM working solutions. The final concentration of DMSO in the incubation system was 0.5%. To determine the rate of drug transport in the apical to basolateral direction. Add 125 μL of the test compounds to the Transwell insert (apical compartment), and transfer 50 μL sample (DO sample) immediately from the apical compartment to a new 96-well plate. Fill the wells in the receiver plate (basolateral compartment) with 235 μL of HBSS (10 mM HEPES, pH 7.4). To determine the rate of drug transport in the basolateral to apical direction. Add 285 μL of the test compounds to the receiver plate wells (basolateral compartment), and transfer 50 μL sample (DO sample) immediately from the basolateral compartment to a new 96-well plate. Fill the Transwell insert (apical compartment) with 75 μL of HBSS (10 mM HEPES, pH 7.4). Time 0 samples were prepared by transferring 50 μL of 5 μM working solution to wells of the 96-deepwell plate, followed by the addition of 200 μL cold acetonitrile containing appropriate internal standards (100 nM alprazolam, 200 nM labetalol, 200 nM caffeine and 200 nM diclofenac). The plates were incubated at 37° C. for 2 hours. […] Samples were vortexed for 5 minutes and then centrifuged at 3,220 g for 40 minutes. An aliquot of 100 μL of the supernatant was mixed with 100 μL of ultra-pure water to use for LC-MS/MS analysis. To determine the Lucifer Yellow leakage after 2 hour transport period, stock solution of Lucifer yellow was prepared in water and diluted with HBSS (10 mM HEPES, pH 7.4) to reach the final concentration of 100 μM. 100 μL of the Lucifer yellow solution was added to each Transwell insert (apical compartment), followed by filling the wells in the receiver plate (basolateral compartment) with 300 μL of HBSS (10 mM HEPES, pH 7.4). The plates were incubated at 37° C. for 30 minutes. 80 μL samples were removed directly from the apical and basolateral wells (using the basolateral access holes) and transferred to wells of new 96 wells plates.

recombinant human NNMT = molecular target: T1, recombinant human NNMT (Homo sapiens, UniProt P40261); assay: in vitro NNMT enzyme inhibition assay (Promega MTase-Glo Methyltransferase Assay); format: biochemical; settings: 40 nM recombinant human NNMT, 8 μM nicotinamide, 6.7 μM SAM, 20 minutes
T1 sequence (P40261 1-264): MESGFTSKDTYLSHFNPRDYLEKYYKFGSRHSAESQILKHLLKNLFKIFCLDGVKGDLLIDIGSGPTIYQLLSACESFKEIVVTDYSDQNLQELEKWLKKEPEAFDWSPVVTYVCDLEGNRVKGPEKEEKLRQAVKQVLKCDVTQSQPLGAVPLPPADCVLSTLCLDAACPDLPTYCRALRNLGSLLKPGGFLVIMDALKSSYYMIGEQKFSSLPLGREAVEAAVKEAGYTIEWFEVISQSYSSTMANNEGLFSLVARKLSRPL
Method: NNMT biochemical activity for was evaluated using the Promega Mtase-Glo Methyltransferase Assay kit. Assays were performed in a white, flat-bottomed 96 well plate. […] Reactions were performed for 20 minutes at room temperature. MTase-Glo reagent and MTase-Glo detection solution were added according to manufacturer's instructions and luminescence signal measured with a SpectraMax i3 plate reader and data analyzed with GraphPad Prism version 9. Scheme 16 depicts a visual summary of the Promega MTase-Glo Methyltransferase assay used to assess biochemical activity of novel inhibitors.

K562 (ATCC) cells = assay: Cellular potency: 1-MNA levels in K562 cells after compound incubation; format: cell-based; settings: Homo sapiens, 24 h incubation
Method: Cellular potency was measured in K562 (ATCC) cells via measuring (1-methyl nicotinamide) 1-MNA levels after compound incubation at varying concentrations overnight. Cells were plated at 1 million per well and were incubated for 24 h with compounds at indicated concentrations. Cells were collected by pipetting and extracted with 200 ul acetonitrile containing internal deuterated standard 10 ng/ml d4-1-MNA. Samples were analyzed on an Agilent 64-60 Triple Quad LC/MS with Agilent 1290 Infinity HPLC using a Restek Allure 5 um PPFP column 150 mm×2.1. The mobile phase A was 2.5 mM ammonium formate in water, and mobile phase B was methanol with 0.1% formic acid, delivered at 0.25 mL/min. The capillary voltage was set to 2400V and the nozzle at 300V. The drying gas temperature was 240° C., the drying gas flow rate was 4 L/min, and the nebulizer pressure was 40 psi. The mass spectrometer was run in multiple reaction monitoring mode. Mass transitions were m/z 137.1 à 94.1 for 1-MNA and m/z 141.1 à 98.1 for d4-MNA.

FIG. 20 = assay: FIG. 20
Text: Table printed on a drawing sheet, FIG. 20
The patent's description of the figure: FIG. 20 is a table summarizing mean PK parameters of various compound 11 samples after different PO dosages in female C57B16/N mice.
First reader's note: The asterisks on two AUC values are not explained on the sheet; the first grid row holds only the heading 'PK Parameter'.

FIG. 19 = assay: FIG. 19
Method: Table printed on a drawing sheet, FIG. 19
Footnotes: %Q: The percent of compound remaining after 60 minutes of exposure to liver microsomes
The patent's description of the figure: FIG. 19 is a table summarizing PK/PD data for compounds 1 to 3 and 11.
First reader's note: The CL value of Compound 11 (36.1) is boxed on the sheet.

[2] = Caco-2, pH 7.4, Recovery (%) AP-BL
[3] = Caco-2, pH 7.4, Recovery (%) BL-AP

| Papp A→B at 2 h, 5 μM [1] [×10⁻⁶ cm/s] | Papp B→A at 2 h, 5 μM [1] [×10⁻⁶ cm/s] | efflux ratio at 2 h, 5 μM [1] | recovery at 2 h, 5 µM [1, 2] [%] | recovery at 2 h, 5 µM [1, 3] [%] | Compound | IC50 (recombinant human NNMT) | further results |
| --- | --- | --- | --- | --- | --- | --- | --- |
| 26.9 | 16.6 | 0.62 | 80 | 88.5 | CC(C)NCC(O)COc1cccc2ccccc12 (stereo not shown) [Propranolol] |  |  |
|  |  |  |  |  | Cc1c(C(N)=O)cnc2c1C[C@@H](C)N2 [Compound 19A] | 28 nM and 28 to 43 nM | IC50 (K562 (ATCC) cells): 12 nM |
| 0.67 | 19 | 28.2 | 79.1 | 94.5 | C[C@H]1O[C@@H](O[C@H]2[C@@H](O)C[C@H](O[C@H]3[C@@H](O)C[C@H](O[C@H]4CC[C@@]5(C)[C@H](CC[C@@H]6[C@@H]5C[C@@H](O)[C@]5(C)[C@@H](C7=CC(=O)OC7)CC[C@]65O)C4)O[C@@H]3C)O[C@@H]2C)C[C@H](O)[C@@H]1O [Digoxin] |  |  |
|  |  |  |  |  | Cc1c(C(N)=O)cnc2c1CC(C)N2 (stereo not shown) [Compound 18] | 848 nM |  |
| 9.44 | 28.9 | 3.06 | 77 | 90.4 | COc1cc2nc(N3CCN(C(=O)c4ccco4)CC3)nc(N)c2cc1OC [Prazosin] |  |  |
|  |  |  |  |  | C[C@H]1Nc2ncc(C(N)=O)cc2[C@@H]1C [Compound 26A] | 20 nM | IC50 (K562 (ATCC) cells): 114 nM |
|  |  |  |  |  | C[C@@H]1Cc2cc(C(N)=O)cnc2N1 [compound 11] |  | AUClast (h*ng/mL) (FIG. 20): 54,351 h*ng/mL; F(%) (FIG. 20): >100%; T1/2 (FIG. 20): 41.6 min and 50.5 min and 42.5 min; Tmax (FIG. 20): 20 min and 34.8 min |
|  |  |  |  |  | NC(=O)c1cnc2c(c1)CCN2 [Compound 1] | 105 nM | %Q (Human) (FIG. 19): 101.05%; %Q (Mouse) (FIG. 19): 88.98%; AUClast (FIG. 19): 255 ng·h/mL; CL (FIG. 19): 64.2 mL/min/kg; T1/2 (FIG. 19): 10.9 min; Vss (FIG. 19): 0.904 L/kg |

Source: patent publication US20250368638A1, “BICYCLIC INHIBITORS OF NICOTINAMIDE […], COMPOSITIONS AND USES THEREOF” (President and Fellows of Harvard College, priority 2021, published 2025)
